According to US20200317660A1, “Quinazolinone Compound and Application Thereof” (LUOXIN PHARMACEUTICAL (SHANGHAI) CO., LTD., priority 2017, published 2020):
Where two headings read alike, the source gives them in different places.

Legend:
PI3Kδ = molecular target: T1, PI3Kδ (Homo sapiens, UniProt O00329); assay: In vitro test of enzyme activity (ADP-Glo lipokinase), PI3K delta; assay type: biochemical; conditions: 40 μM ATP, 50 μM PIP2:3PS, 120 min
T1 construct: purchased Millipore 14-604-K
Description: (§1) 1. In Vitro Test of Enzyme Activity
(§2) The lipokinase reaction was carried out under the conditions of a suitable substrate and ATP, followed by two steps to detect the kinase activity with the ADP-Glo™ kit. The first step was terminating the kinase reaction, wherein the remaining ATP was completely removed and only ADP was left; the second step was adding kinase detection reagents to convert ADP to ATP, accompanied by luciferin/luciferase reaction. Finally, the output value of fluorescence value was converted into kinase activity.
(§3) Experimental materials and equipments:
(§4) 2. Kit: ADP-Glo™ Lipokinase and PIP2:3PS Kit (Promega # V1792)
(§5) The kit contains: 1 mM PIP2:3PS, 10× lipid dilution buffer, 1 M magnesium chloride, 10 mM ATP, 10 mM ADP, ADP-Glo reagent, detection buffer and detection substrate.
(§6) 3. Reaction plate: OptiPlate-384, white and transparent (PerkinElmer #6007299).
(§7) 1. 10× reaction buffer: 500 mM HEPES, pH 7.5, 500 mM NaCl, 9 mM MgCl2; BSA: 10% stock solution, homemade.
(§8) 2. Final test system conditions: 1× reaction system: 50 mM HEPES, 50 mM NaCl, 3 mM MgCl2, 0.01% BSA (freshly prepared on the day of the experiment), 1% DMSO (v/v)+/−compound
(§9) 3. Reaction system: 3 μL mixture of the enzyme and the substrate (1:1)+2 μL ATP/MgCl2 mixture+5 μL ADP-Glo reagent+10 μL detection reagent.
(§10) The detailed experimental procedures are as follows:
(§11) 1. Compound dilution: 50 nL 100×compound/DMSO was transferred to the test well plate with Echo. • For PI3Kα, the compound was diluted three-fold from the highest concentration of 0.111 mM for a total of 10 concentrations. • For PI3Kβ/PI3Kδ/PI3Kγ, the compound was three-fold diluted from the highest concentration of 1.11 mM for a total of 10 concentrations.
(§12) (1) The compound to be tested was prepared and 50 nL of 100 plus compound solution or DMSO was added to the corresponding well plate.
(§13) (2) 3.33 plate reaction buffer was prepared.
(§14) (3) 3.33 solution PIP2:3PS was prepared, PIP2:3PS was thawed for at least 1 minute before use.
(§15) (4) 2.5 mM containing 5.25 mM MgCl2 was prepared.
(§16) (5) 3.33 PI3Kα/PI3Kβ/PI3Kδ/PI3Kγ solution was prepared.
(§17) (6) The lipokinase solution and the PIP2:3PS solution were mixed in a volume ratio of 1:1.
(§18) (7) 3.33: lipokinase buffer and PIP2:3PS solution were mixed in a volume ratio of 1:1.
(§19) (8) 3 μL of buffer solution and PIP2:3PS were added to the first and the second columns of the well plate.
(§20) (9) 3 μL of the mixed solution of the enzyme and PIP2:3PS was added to the wells except the first and the second columns, centrifuged for 10 seconds (1000 rpm) and incubated at 23° C. for 20 minutes.
(§21) (10) 2 μL […] was added and well was shaken.
(§22) (11) The well plate was covered and shaken for about 30 s, then the well plate was incubated at 23° C. for 2 hours.
(§23) (12) 5 μL of ADP-Glo reagent containing 10 mM MgCl2 was added.
(§24) (13) The well plate was centrifuged at 1000 rpm for 10 seconds, and the well plate was then covered, shaken for about 30 seconds, and incubated at 23° C. for 60 minutes.
(§25) (14) 10 μL kinase detection reagent was added.
(§26) (15) The well plate was centrifuged at 1000 rpm for 10 seconds, and then incubated at 23° C. for 60 minutes.
(§27) (16) The fluorescence value was measured on the Envision instrument.

PI3Kβ = molecular target: T2, PI3Kβ (Homo sapiens, UniProt P42338); assay: In vitro test of enzyme activity (ADP-Glo lipokinase), PI3K beta; assay type: biochemical; conditions: 40 μM ATP, 50 μM PIP2:3PS, 120 min
T2 construct: purchased Promega V1751
Description: as §1, §2, §3, §4, §5, §6, §7, §8, §9, §10, §11, §12, §13, §14, §15, §16, §17, §18, §19, §20, §21, §22, §23, §24, §25, §26, §27

PI3Kγ = molecular target: T3, PI3Kγ (Homo sapiens, UniProt P48736); assay: In vitro test of enzyme activity (ADP-Glo lipokinase), PI3K gamma; assay type: biochemical; conditions: 25 μM ATP, 50 μM PIP2:3PS, 120 min
T3 construct: purchased Millipore 14-558-K
Description: as §1, §2, §3, §4, §5, §6, §7, §8, §9, §10, §11, §12, §13, §14, §15, §16, §17, §18, §19, §20, §21, §22, §23, §24, §25, §26, §27

[1] = system: phosphorylation of PI3K downstream protein Akt in MCF7 cells; assay: In vitro test of cells activity: ELISA of Akt phosphorylation in MCF7 cells; assay type: cell-based; conditions: 2 h compound, insulin 10 μg/mL stimulation, pAkt ELISA, read-out: MCF7 Cell IC50
Description: 2. In vitro test of cells activity
By the method of ELISA, the inhibition level of the test compound on the phosphorylation of PI3K downstream protein Akt in the signaling pathway was determined in MCF7 cells line to reflect the cells activity of the compound.
Cell culture medium: complete cell culture medium (RPMI 1640+10% serum+1% L-glutamine+1% double antibody)
Serum-free medium (without serum, RPMI 1640+1% L-glutamine+1% double antibody)
The detailed procedures areas follows:
(1) MCF7 cells (ATCC® HTB-22™) were inoculated into a 96-well plate at 100 μL of cell complete medium per well (2.5*10^4 cells per well), and the cells were incubated at 37° C. and 5% CO2 for 24 hours.
(2) The complete cell culture medium was replaced with 100 μL of serum-free medium, and incubated for starvation overnight.
(3) The compound was prepared (The initial concentration of the compound is 1 mM, which was subjected to a three-fold dilution in 10 concentrations, and the compound of each concentration was then diluted 100-fold with serum-free medium). 25 μL of the diluted compound was added to the cells orifice plate.
(4) The cells were incubated at 37° C. and 5% CO2 for 2 hours.
(5) The cells in the well plate were stimulated with 10 μg/mL insulin (Sigma # I9278-5 mL), incubated for 30 minutes, and then centrifuged at 1000 rpm for 5 minutes at room temperature.
(6) 250 μL of 1× balanced salt solution (Invitrogen, #14065-056, 4° C., containing 1 mM/L Na3VO4) was added to each well to wash the cells once.
(7) 100 μL of lysis buffer (trimethylolaminomethane hydrochloride, Invitrogen, #15567-1000 ml) was added to each well, shaken at 4° C. for 60 minutes, and then centrifuged at 4000 rpm for 4 minutes.
(8) The following procedures were carried out according to the instructions of ELISA kit (TGR BioSciences # EKT002).

PI3Kα = molecular target: T4, PI3Kα (Homo sapiens, UniProt P42336); assay: In vitro test of enzyme activity (ADP-Glo lipokinase), PI3K alpha; assay type: biochemical; conditions: 40 μM ATP, 50 μM PIP2:3PS, 120 min
T4 construct: purchased Millipore 14-602-K
Description: as §1, §2, §3, §4, §5, §6, §7, §8, §9, §10, §11, §12, §13, §14, §15, §16, §17, §18, §19, §20, §21, §22, §23, §24, §25, §26, §27

T3 sequence (P48736 whole entry): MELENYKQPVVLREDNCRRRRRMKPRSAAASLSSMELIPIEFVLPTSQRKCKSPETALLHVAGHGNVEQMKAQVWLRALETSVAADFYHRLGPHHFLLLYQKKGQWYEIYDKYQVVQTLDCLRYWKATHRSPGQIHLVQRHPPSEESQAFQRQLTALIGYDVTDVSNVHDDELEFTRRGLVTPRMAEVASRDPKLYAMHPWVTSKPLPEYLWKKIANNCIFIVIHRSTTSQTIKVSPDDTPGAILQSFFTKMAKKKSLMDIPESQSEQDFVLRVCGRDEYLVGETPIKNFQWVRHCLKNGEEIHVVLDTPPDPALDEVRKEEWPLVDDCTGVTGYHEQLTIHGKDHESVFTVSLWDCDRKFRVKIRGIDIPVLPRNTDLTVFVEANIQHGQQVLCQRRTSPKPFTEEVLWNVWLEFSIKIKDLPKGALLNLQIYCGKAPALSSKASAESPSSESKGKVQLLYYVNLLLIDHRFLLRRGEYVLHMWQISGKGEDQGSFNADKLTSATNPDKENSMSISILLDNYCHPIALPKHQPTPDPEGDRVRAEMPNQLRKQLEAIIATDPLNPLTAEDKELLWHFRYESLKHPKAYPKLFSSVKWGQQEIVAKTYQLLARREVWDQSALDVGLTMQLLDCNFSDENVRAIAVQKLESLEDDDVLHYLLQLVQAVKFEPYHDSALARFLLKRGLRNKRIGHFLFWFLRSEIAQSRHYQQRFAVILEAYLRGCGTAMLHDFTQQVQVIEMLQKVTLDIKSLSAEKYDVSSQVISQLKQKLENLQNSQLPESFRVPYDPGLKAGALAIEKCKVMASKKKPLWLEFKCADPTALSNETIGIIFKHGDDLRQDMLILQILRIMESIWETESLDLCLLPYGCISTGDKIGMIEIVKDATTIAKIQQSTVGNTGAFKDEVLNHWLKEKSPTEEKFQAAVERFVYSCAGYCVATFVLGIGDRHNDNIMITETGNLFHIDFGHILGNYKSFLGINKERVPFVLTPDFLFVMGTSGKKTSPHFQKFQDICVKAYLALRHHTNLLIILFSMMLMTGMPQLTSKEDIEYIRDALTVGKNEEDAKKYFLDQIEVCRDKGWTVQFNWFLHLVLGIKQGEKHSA
T1 sequence (O00329 whole entry): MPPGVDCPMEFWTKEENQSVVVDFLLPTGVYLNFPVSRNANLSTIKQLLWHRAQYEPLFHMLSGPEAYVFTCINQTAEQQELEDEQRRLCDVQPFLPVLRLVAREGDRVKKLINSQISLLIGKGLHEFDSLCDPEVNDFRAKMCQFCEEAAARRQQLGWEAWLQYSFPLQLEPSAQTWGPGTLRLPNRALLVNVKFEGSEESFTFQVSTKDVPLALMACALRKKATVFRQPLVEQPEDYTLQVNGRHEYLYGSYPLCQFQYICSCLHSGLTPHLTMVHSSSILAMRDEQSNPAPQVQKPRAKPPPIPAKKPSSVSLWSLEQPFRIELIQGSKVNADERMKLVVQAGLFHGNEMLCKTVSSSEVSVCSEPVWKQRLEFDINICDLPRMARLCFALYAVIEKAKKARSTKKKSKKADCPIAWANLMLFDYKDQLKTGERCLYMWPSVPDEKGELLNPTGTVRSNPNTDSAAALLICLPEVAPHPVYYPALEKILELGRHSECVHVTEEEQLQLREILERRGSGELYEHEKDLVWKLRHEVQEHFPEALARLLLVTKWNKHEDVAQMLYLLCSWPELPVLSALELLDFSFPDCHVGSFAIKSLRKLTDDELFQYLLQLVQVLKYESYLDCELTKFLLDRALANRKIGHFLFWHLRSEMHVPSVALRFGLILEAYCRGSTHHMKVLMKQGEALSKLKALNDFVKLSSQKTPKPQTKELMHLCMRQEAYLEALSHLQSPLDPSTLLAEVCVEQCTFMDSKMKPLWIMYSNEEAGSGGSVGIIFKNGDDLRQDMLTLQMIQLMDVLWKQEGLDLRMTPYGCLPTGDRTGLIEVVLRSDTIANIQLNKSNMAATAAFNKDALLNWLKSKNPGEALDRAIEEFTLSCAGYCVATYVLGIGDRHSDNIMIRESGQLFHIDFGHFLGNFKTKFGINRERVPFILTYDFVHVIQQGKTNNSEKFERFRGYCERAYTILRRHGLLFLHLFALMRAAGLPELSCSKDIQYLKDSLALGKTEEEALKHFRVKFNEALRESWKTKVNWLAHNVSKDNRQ
T1 sequence (P27986 whole entry partner): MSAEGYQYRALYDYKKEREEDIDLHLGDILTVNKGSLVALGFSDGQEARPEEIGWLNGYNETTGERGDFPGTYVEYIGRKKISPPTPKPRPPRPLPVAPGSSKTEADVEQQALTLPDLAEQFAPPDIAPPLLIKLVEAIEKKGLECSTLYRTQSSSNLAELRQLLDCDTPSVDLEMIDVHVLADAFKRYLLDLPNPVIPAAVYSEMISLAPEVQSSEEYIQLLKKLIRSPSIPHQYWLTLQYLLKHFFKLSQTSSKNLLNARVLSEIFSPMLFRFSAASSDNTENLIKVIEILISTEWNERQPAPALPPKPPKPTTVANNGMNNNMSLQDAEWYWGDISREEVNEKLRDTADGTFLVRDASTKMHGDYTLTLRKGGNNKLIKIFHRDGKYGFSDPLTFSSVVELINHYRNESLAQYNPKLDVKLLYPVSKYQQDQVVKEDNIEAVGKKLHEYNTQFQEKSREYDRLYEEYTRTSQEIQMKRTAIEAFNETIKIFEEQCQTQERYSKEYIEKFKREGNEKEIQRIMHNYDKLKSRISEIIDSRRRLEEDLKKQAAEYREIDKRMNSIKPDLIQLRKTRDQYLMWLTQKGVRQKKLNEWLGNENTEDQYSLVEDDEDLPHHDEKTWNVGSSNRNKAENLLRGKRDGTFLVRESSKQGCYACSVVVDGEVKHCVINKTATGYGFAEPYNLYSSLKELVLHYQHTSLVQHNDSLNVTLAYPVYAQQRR
T2 sequence (P42338 whole entry): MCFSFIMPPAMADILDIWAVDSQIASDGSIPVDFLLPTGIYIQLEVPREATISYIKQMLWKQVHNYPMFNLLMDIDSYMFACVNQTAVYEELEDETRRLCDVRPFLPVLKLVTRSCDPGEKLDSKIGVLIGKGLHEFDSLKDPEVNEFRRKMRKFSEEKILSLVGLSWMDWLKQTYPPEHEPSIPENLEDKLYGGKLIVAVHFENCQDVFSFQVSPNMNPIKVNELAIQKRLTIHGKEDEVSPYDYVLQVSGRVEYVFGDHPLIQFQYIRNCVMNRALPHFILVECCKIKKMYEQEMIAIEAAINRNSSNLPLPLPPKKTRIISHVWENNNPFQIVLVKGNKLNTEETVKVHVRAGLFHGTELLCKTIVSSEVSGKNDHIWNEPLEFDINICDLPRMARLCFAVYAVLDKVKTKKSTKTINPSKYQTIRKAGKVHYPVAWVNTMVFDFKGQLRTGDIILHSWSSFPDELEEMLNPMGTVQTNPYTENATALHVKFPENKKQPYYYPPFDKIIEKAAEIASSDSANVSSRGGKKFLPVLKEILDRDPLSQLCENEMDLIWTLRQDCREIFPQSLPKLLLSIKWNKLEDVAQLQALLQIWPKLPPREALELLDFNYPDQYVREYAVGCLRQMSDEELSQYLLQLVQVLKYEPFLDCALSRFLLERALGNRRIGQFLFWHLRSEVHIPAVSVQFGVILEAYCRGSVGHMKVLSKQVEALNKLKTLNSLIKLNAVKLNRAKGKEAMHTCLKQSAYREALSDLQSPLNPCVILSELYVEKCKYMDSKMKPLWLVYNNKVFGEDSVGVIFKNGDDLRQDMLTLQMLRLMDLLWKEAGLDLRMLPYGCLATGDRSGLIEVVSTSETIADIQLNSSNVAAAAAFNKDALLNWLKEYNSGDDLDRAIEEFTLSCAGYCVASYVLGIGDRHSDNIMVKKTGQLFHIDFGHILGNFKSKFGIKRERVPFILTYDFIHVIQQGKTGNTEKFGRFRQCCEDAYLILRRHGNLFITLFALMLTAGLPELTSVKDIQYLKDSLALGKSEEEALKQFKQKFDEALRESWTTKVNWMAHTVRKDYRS
T2 sequence (P27986 whole entry partner): as the sequence (P27986 whole entry partner) above
T4 sequence (P42336 whole entry): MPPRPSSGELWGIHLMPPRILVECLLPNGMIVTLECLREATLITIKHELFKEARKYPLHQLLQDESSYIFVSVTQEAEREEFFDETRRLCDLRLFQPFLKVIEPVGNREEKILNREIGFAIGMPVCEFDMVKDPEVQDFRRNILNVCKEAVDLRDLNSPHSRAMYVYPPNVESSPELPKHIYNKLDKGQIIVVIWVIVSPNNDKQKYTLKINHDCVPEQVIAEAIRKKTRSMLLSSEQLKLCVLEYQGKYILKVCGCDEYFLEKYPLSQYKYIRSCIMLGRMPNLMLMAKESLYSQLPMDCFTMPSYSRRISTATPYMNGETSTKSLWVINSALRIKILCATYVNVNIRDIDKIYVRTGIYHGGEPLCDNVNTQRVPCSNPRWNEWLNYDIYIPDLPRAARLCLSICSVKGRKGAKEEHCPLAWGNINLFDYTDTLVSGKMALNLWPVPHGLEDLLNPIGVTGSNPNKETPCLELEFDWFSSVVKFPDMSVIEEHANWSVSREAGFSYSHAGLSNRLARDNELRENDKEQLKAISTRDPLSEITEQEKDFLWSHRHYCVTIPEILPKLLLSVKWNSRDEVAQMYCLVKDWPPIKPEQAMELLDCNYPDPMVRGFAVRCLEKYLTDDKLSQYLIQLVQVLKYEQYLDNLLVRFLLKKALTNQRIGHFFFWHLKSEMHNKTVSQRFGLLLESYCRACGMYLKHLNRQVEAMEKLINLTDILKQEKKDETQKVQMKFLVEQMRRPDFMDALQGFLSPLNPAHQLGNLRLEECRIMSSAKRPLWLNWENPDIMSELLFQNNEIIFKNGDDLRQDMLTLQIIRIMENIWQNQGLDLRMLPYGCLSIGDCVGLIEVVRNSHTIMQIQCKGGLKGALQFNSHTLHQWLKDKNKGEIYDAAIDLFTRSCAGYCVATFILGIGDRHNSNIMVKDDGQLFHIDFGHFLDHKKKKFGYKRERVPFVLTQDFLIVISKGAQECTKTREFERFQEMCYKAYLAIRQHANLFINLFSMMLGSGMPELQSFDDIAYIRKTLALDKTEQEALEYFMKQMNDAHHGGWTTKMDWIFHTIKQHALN
T4 sequence (P27986 whole entry partner): as the sequence (P27986 whole entry partner) above

Row | IC50 (PI3Kδ) [nM] | IC50 (PI3Kβ) [nM] | IC50 (PI3Kγ) [nM] | IC50 [1] [nM] | IC50 (PI3Kα) [nM] | IC50 ([1]; Homo sapiens, MCF7, 2 h) [nM] | Structure (SMILES)
1 | 29.6 | 390 | 68.3 |  | 4.77 |  | CNC(=O)C(C)Cn1cnc2ccc(-c3cnc(OC)c(NS(=O)(=O)c4cc(Cl)c(F)cc4F)c3)cc2c1=O (single isomer, unassigned) [WX095]
2 |  | 736 |  | 460 | 19.5 |  | CNC(=O)C(C)Cn1cnc2c(F)cc(-c3cnc(OC)c(NS(=O)(=O)c4ccc(F)cc4Cl)c3)cc2c1=O (single isomer, unassigned) [WX106]
3 |  | 1850 |  | 302 | 18.1 |  | CCC(Cn1cnc2ccc(-c3cnc(OC)c(NS(=O)(=O)c4ccc(F)cc4Cl)c3)cc2c1=O)C(=O)NC (single isomer, unassigned) [WX107]
4 |  | 415 |  | 96.5 | 13.9 |  | CCC(Cn1cnc2ccc(-c3cnc(OC)c(NS(=O)(=O)c4ccc(F)cc4Cl)c3)cc2c1=O)C(=O)NC (single isomer, unassigned) [WX108]
5 |  | 1770 |  | 395 | 41 |  | CNC(=O)[C@@H]1CCC[C@H]1Cn1cnc2ccc(-c3cnc(OC)c(NS(=O)(=O)c4ccc(F)cc4Cl)c3)cc2c1=O (single isomer, unassigned) [WX196]
6 |  | 2160 |  |  | 22.8 | > 1000 | CNC(=O)C(C)Cn1cnc2ccc(-c3cnc(OC(F)(F)F)c(NS(=O)(=O)c4ccc(F)cc4Cl)c3)cc2c1=O (stereo not shown) [WX127]
7 | 4.36 | 88.5 | 44.1 |  | 6.71 |  | CNC(=O)C1(Cn2cnc3ccc(-c4cnc(OC)c(NS(=O)(=O)c5ccc(F)cc5Cl)c4)cc3c2=O)CC1 [WX202]

More lines, now with the values behind:

Row | Structure (SMILES) | IC50 (PI3Kδ) [nM] | IC50 (PI3Kβ) [nM] | IC50 (PI3Kγ) [nM] | IC50 [1] [nM] | IC50 (PI3Kα) [nM] | IC50 ([1]; Homo sapiens, MCF7, 2 h) [nM]
8 | COc1ncc(-c2ccc3ncn(CC(C)C(=O)O)c(=O)c3c2)cc1NS(=O)(=O)c1ccc(F)cc1Cl (single isomer, unassigned) [R002, reference compound] | 122 | 1060 | 20.4 | 628 | 13.6 | 
9 | COc1ncc(-c2ccc3ncn(CC(C)C(=O)O)c(=O)c3c2)cc1NS(=O)(=O)c1ccc(F)cc1Cl (single isomer, unassigned) [R003, reference compound] | 85 | 426 | 5.29 |  | 7.16 | 318
10 | CNC(=O)C(C)Cn1cnc2ccc(-c3cnc(C)c(NS(=O)(=O)c4sc(C)nc4C)c3)cc2c1=O (single isomer, unassigned) [WX035] | 7.3 | 158 | 19.6 |  | 1.57 | 
11 | CCC(CC)NC(=O)C(C)Cn1cnc2ccc(-c3cnc(OC)c(NS(=O)(=O)c4ccc(F)cc4Cl)c3)cc2c1=O (single isomer, unassigned) [WX056] | 61 | 5080 | 155 |  | 19.6 | 
12 | CCC(CC)NC(=O)C(C)Cn1cnc2ccc(-c3cnc(OC)c(NS(=O)(=O)c4ccc(F)cc4Cl)c3)cc2c1=O (single isomer, unassigned) [WX057] | 28.4 | 963 | 48.1 |  | 57.2 | 
13 | COc1ncc(-c2ccc3ncn(CC(C)C(=O)NCC(F)(F)F)c(=O)c3c2)cc1NS(=O)(=O)c1ccc(F)cc1Cl (single isomer, unassigned) [WX059] | 13.2 | 391 | 14.2 |  | 11.2 | 
14 | CNC(=O)C(C)Cn1cnc2ccc(-c3cnc(CO)c(NS(=O)(=O)c4ccc(F)cc4Cl)c3)cc2c1=O (single isomer, unassigned) [WX062] | 538 | > 10000 | 374 |  | 30 | 
15 | CNC(=O)C(C)Cn1cnc2ccc(-c3cnc(CO)c(NS(=O)(=O)c4ccc(F)cc4Cl)c3)cc2c1=O (single isomer, unassigned) [WX063] | 336 | 7230 | 318 |  | 71.4 | 
16 | COCCNC(=O)C(C)Cn1cnc2ccc(-c3cnc(OC)c(NS(=O)(=O)c4ccc(F)cc4Cl)c3)cc2c1=O (single isomer, unassigned) [WX064] | 9.15 | 365 | 16.4 |  | 6.8 | 
17 | COc1ncc(-c2ccc3ncn(CC(C)C(=O)NCCF)c(=O)c3c2)cc1NS(=O)(=O)c1ccc(F)cc1Cl (single isomer, unassigned) [WX066] | 7.78 | 181 | 9.25 |  | 5.26 | 
18 | Cc1ncc(-c2ccc3ncn(CCN(C)C)c(=O)c3c2)cc1NS(=O)(=O)c1ccc(F)cc1Cl [R010, reference compound] | 45.8 | 345 | 421 |  | 34.4 | 
19 | CNC(=O)CCCn1cnc2ccc(-c3cnc(C)c(NS(=O)(=O)c4ccc(F)cc4Cl)c3)cc2c1=O [WX002] | 12.4 | 216 | 33.7 |  | 2.84 | 
20 | Cc1ncc(-c2ccc3ncn(CCCC(=O)N4CCCC4)c(=O)c3c2)cc1NS(=O)(=O)c1ccc(F)cc1Cl [WX005] | 7.42 | 244 | 49.7 |  | 4.39 | 
21 | Cc1nc(C)c(S(=O)(=O)Nc2cc(-c3ccc4ncn(CCCC(=O)N5CCCC5)c(=O)c4c3)cnc2C)s1 [WX007] | 1.85 | 159 | 29.1 |  | 1.49 | 
22 | CCC(Cn1cnc2ccc(-c3cnc(OC)c(NS(=O)(=O)c4ccc(F)cc4Cl)c3)cc2c1=O)C(N)=O (stereo not shown) [WX021] |  | 133 |  |  | 6.89 | 52.3
23 | COc1ncc(-c2ccc3ncn(CC(C(N)=O)C(C)C)c(=O)c3c2)cc1NS(=O)(=O)c1ccc(F)cc1Cl (stereo not shown) [WX022] |  | 832 |  |  | 25.5 | 125
24 | COc1ncc(-c2ccc3ncn(CC(F)(F)C(N)=O)c(=O)c3c2)cc1NS(=O)(=O)c1ccc(F)cc1Cl [WX041] | 7.16 | 124 | 8.37 |  | 2.66 | 
